Legend:
MV 411 cells = assay: Cell Viability Assay (CellTiter-Glo); format: cell-based; conditions: Homo sapiens, MV4-11, 72 hours, read-out: IC50 (anti-proliferative activity against leukemia cells)
Experimental: Cell lines and maintenance: All cell lines (MV 411) used for in vitro and in vivo studies were supplied as part of Wuxi AppTech cell bank. Cell lines were maintained in a medium supplemented with 10% heat inactivated fetal bovine serum at 37° C., in an atmosphere of 5% CO2, in air. The tumor cells were routinely subcultured twice weekly. The cells growing in an exponential growth phase were used for the in vitro cell potency and in vivo efficacy studies.
EXAMPLE 1: Cell Viability Assay: For cell cytotoxicity assays, 2000 cells/well were plated in 384-well plates. Twenty four hours after plating, cells were treated with inhibitors at the indicated compound concentrations. On Day 3 (72 hours), cells were lysed with CellTiter-Glo® Luminescent Cell Viability Assay reagent (Promega) and luminescence was read using the EnVision Multi-plate reader. To calculate IC50, a dose-response curve is generated using a nonlinear regression model with a sigmoidal dose response. The formula of surviving rate is shown below. IC50 values were automatically generated by GraphPad Prism 8.0. See FIG. 1A and FIG. 1B and Tables 3 and 4.

WDR5 = WDR5 (Homo sapiens, UniProt P61964); assay: WDR5 TR-FRET Assay; format: binding; conditions: 5 nM WDR5 protein, 10 nM peptide, read-out: IC50 (MLL1-WDR5 PPI inhibitory activity)
Experimental: WDR5 TR-FRET Assay Procedure: Stock compounds were transferred to the assay plate by Echo Liquid Handler. Reactions were performed in the assay buffer (1×PBS, 300 mM NaCl, 0.5 mM TCEP, 0.1% CHAPS) containing 5 nM WDR5 protein, 10 nM peptide (Ac-ARTEVHLRKS-[Ahx-Ahx][C]-Alexa Fluor 488-NH2) and 0.25 nM Tb-anti His antibody (Tb-Ab) in 384-well white plate (PerkinElmer) with a final volume of 20 μl. Compounds were incubated with WDR5 protein for 30 min at room temperature. Plates were covered, protected from light and incubated for 60 min. at room temperature after adding the peptide and Tb-Ab. EnVision Multimode Plate Reader (PerkinElmer) was used for the TR-FRET assay with excitation wavelength at 340 nm and emission wavelength at 495 and 520 nm. The ratio of the 520/495 nm wavelengths were used to assess the degree of the FRET signal. IC50 was calculated by fitting the inhibition data using XLfit software to sigmoidal dose-response model.

[1] = Compound formulation stability assay; format: physicochemical; conditions: 10 mg/mL in 10% DMSO/10% solutol HS 15/80% water, 2-8° C.
Experimental: Compound formulation stability assay: Test articles were formulated in 10% DMSO/10% solutol HS 15/80% water and stored at 4° C. Formulated compounds were analyzed by a HPLC-UV method for actual concentrations and % remaining on Day 1, 4 and 7 after formulation to determine the stability of the formulated test article. The HPLC system was equipped with Shimadzu LC-20 high-performance liquid chromatograph, SIL-20AC auto sampler, LC-20AB pump and SPD-M20A detector. A Waters XBridge C18 (4.6*100 mm) column was applied for the separation. […]

Mouse PK (oral) = format: in vivo, C57/B16 mice; conditions: for Cmax: plasma; for AUC(0-t) / half-life: C57/B16, plasma
Experimental: Mouse PK: Animals were dosed with a single intravenous bolus or oral gavage administration in naïve C57/B16 mice (Beijing Vital River Laboratory Animal Co., LTD). Blood samples were collected at the respective sampling time points. The quantification of compound concentrations in mouse or rat plasma was quantified using LC-MS/MS method. Plasma concentration versus time data was analyzed by non-compartmental mode approaches using the WinNonlin software program (version 6.3 or above, Pharsight). Pharmacokinetic parameters, including C0 (initial concentration after drug administration), […], Vdss (volume of distribution), Cmax (maximum peak concentration of the drug), Tmax (time required to reach Cmax) T1/2 (time required for drug concentration to decrease by 50% after administration), AUC0-last (area under the concentration-time curve from dosing time t=0 to the time of the last measured concentration), AUC0-inf (total drug exposure across time), MRT0-last (mean residence time from dosing time t=0 to the time of the last measured concentration), MRT0-inf f (mean residence time of total drug exposure), bioavailability (%) (the percentage (or the fraction F) of an administered drug dose that reaches the systemic circulation) for IV and PO groups were calculated. See Table 7 and FIGS. 6A, 6B, 6C and 6D.

Liver S9 stability assay [2] = format: in vitro ADME, human; conditions: for half-life at 1 μM / microsomal CLint at 1 μM: Human liver S9; for % Remaining after 60 min incubation: Human liver S9, 1 μM, 5 mM GSH, 37° C.
Experimental: (§1) Liver S9 stability assay: Test compounds (1 μM) and positive control were incubated with 5 mM GSH and liver S9 (1 mg protein/ml) from multiple species (including human, monkey, dog, rat and mouse) at 37° C. at 0, 10, 30, and 60 minutes in duplicate. After adding the stop solution, 100 μL of supernatant were analyzed by LC-MS/MS. The % remaining of test compound, T1/2 (min), and CLint (μL/min/mg) were calculated and were reported.

Liver S9 stability assay [3] = format: in vitro ADME, rat; conditions: for half-life at 1 μM / microsomal CLint at 1 μM: Rat liver S9; for % Remaining after 60 min incubation: Rat liver S9, 1 μM, 5 mM GSH, 37° C.
Experimental: as §1

Liver S9 stability assay [4] = format: in vitro ADME, dog; conditions: for half-life at 1 μM / microsomal CLint at 1 μM: Dog liver S9; for % Remaining after 60 min incubation: Dog liver S9, 1 μM, 5 mM GSH, 37° C.
Experimental: as §1

Liver S9 stability assay [5] = format: in vitro ADME, mouse; conditions: for half-life at 1 μM / microsomal CLint at 1 μM: Mouse liver S9; for % Remaining after 60 min incubation: Mouse liver S9, 1 μM, 5 mM GSH, 37° C.
Experimental: as §1

[6] = WBS (whole blood stability) assay; format: in vitro ADME; conditions: for % Remaining after 60 min incubation: 2 μM, 37° C.
Experimental: WBS (whole blood stability) assay: The blood samples were collected freshly from multiple species including human, monkey, dog, rat and mouse. 2 μM of test compound and positive control were incubated with the whole blood at 37° C. at 0, 10, 30, 60, and 120 minutes in duplicate. After adding the stop solution, 200 μL of supernatant were analyzed by LC-MS/MS. The % remaining of test compound and T1/2 (min) were calculated and reported.

C[C@H]1CN(c2cc(F)c(-c3cnc(N4CCOCC4)nc3)cc2Nc2ncnc(Cl)c2N)CCN1C [DDO-2213_020, (S)-6-chloro-N4-(2-(3,4-dimethylpiperazin-1-yl)-4-fluoro-5-(2-morpholinopyrimidin-5-yl)phenyl)pyrimidine-4,5-diamine]
IC50 (MV 411 cells): 5810 nM
IC50 (WDR5): 7.66 nM
Accuracy % (Day 0) [1]: 89.8%
Formulation Appearance (Day 0) [1]: clear solution
Remaining % (Day 0) [1]: 100%
Accuracy % (Day 1) [1]: 91.6%
Formulation Appearance (Day 1) [1]: clear solution
Remaining % (Day 1) [1]: 102%
Accuracy % (Day 4) [1]: 92.0%
Formulation Appearance (Day 4) [1]: clear solution
Remaining % (Day 4) [1]: 100%
Accuracy % (Day 7) [1]: 95.5%
Formulation Appearance (Day 7) [1]: clear solution
Remaining % (Day 7) [1]: 104%
F (Mouse PK (oral); 10 mpk): 61.5%
F (Mouse PK (oral); 30 mpk): 107.0%
Cmax (Mouse PK (oral); C57/B16, 10 mg/kg, 10 mpk): 1.67 µM
Cmax (Mouse PK (oral); C57/B16, 30 mg/kg, 30 mpk): 5.47 µM
AUC(0-t) (Mouse PK (oral); 10 mg/kg, 10 mpk): 7.1 µM·h
half-life (Mouse PK (oral); 10 mg/kg, 10 mpk): 3.3 h
AUC(0-t) (Mouse PK (oral); 30 mg/kg, 30 mpk): 37 µM·h
half-life (Mouse PK (oral); 30 mg/kg, 30 mpk): 2.7 h
half-life at 1 μM (Liver S9 stability assay [2]): > 2.42 h
microsomal CLint at 1 μM (Liver S9 stability assay [2]): < 4.8 µL/min/mg
% Remaining after 60 min incubation (Liver S9 stability assay [2]): 92.1%
half-life at 1 μM (Liver S9 stability assay [3]): > 2.42 h
microsomal CLint at 1 μM (Liver S9 stability assay [3]): < 4.8 µL/min/mg
% Remaining after 60 min incubation (Liver S9 stability assay [3]): 88.8%
half-life at 1 μM (Liver S9 stability assay [4]): > 2.42 h
microsomal CLint at 1 μM (Liver S9 stability assay [4]): < 4.8 µL/min/mg
% Remaining after 60 min incubation (Liver S9 stability assay [4]): 78%
half-life at 1 μM (Liver S9 stability assay [5]): > 2.42 h
microsomal CLint at 1 μM (Liver S9 stability assay [5]): < 4.8 µL/min/mg
% Remaining after 60 min incubation (Liver S9 stability assay [5]): 93.4%
half-life at 2 μM ([6]; Dog whole blood): > 2.41 h
% Remaining after 60 min incubation ([6]; Dog whole blood): 101%
half-life at 2 μM ([6]; Human whole blood): 5 h
% Remaining after 60 min incubation ([6]; Human whole blood): 103%
half-life at 2 μM ([6]; Mouse whole blood): > 2.41 h
% Remaining after 60 min incubation ([6]; Mouse whole blood): 104%
half-life at 2 μM ([6]; Rat whole blood): > 2.41 h
% Remaining after 60 min incubation ([6]; Rat whole blood): 1%

CCN(CC)C(=O)c1cn(-c2cc(NC(=O)c3cc(N)c(F)c(C)c3Cl)c(N3C[C@@H](C)N(C)[C@@H](C)C3)cc2F)nn1 [HYBI-082, 1-(5-(5-amino-2-chloro-4-fluoro-3-methylbenzamido)-2-fluoro-4-((3S,5R)-3,4,5-trimethylpiperazin-1-yl)phenyl)-N,N-diethyl-1H-1,2,3-triazole-4-carboxamide]
IC50 (MV 411 cells): 7680 nM
IC50 (WDR5): 5.32 nM
Accuracy % (Day 0) [1]: 96.3%
Formulation Appearance (Day 0) [1]: clear
Remaining % (Day 0) [1]: 100%
Accuracy % (Day 1) [1]: 96.0%
Formulation Appearance (Day 1) [1]: clear
Remaining % (Day 1) [1]: 100%
Accuracy % (Day 4) [1]: 99.3%
Formulation Appearance (Day 4) [1]: clear
Remaining % (Day 4) [1]: 103%
Accuracy % (Day 7) [1]: 98.6%
Formulation Appearance (Day 7) [1]: clear
Remaining % (Day 7) [1]: 102%
F (Mouse PK (oral); 10 mpk): 23.3%
F (Mouse PK (oral); 30 mpk): 27.5%
Cmax (Mouse PK (oral); C57/B16, 10 mg/kg, 10 mpk): 1.67 µM
Cmax (Mouse PK (oral); C57/B16, 30 mg/kg, 30 mpk): 4.53 µM
AUC(0-t) (Mouse PK (oral); 10 mg/kg, 10 mpk): 2.22 µM·h
half-life (Mouse PK (oral); 10 mg/kg, 10 mpk): 0.8 h
AUC(0-t) (Mouse PK (oral); 30 mg/kg, 30 mpk): 7.61 µM·h
half-life (Mouse PK (oral); 30 mg/kg, 30 mpk): 2 h
half-life at 1 μM (Liver S9 stability assay [2]): > 2.42 h
microsomal CLint at 1 μM (Liver S9 stability assay [2]): < 4.8 µL/min/mg
% Remaining after 60 min incubation (Liver S9 stability assay [2]): 107%
half-life at 1 μM (Liver S9 stability assay [3]): > 2.42 h
microsomal CLint at 1 μM (Liver S9 stability assay [3]): < 4.8 µL/min/mg
% Remaining after 60 min incubation (Liver S9 stability assay [3]): 98.3%
half-life at 1 μM (Liver S9 stability assay [4]): > 2.42 h
microsomal CLint at 1 μM (Liver S9 stability assay [4]): < 4.8 µL/min/mg
% Remaining after 60 min incubation (Liver S9 stability assay [4]): 87.3%
half-life at 1 μM (Liver S9 stability assay [5]): > 2.42 h
microsomal CLint at 1 μM (Liver S9 stability assay [5]): < 4.8 µL/min/mg
% Remaining after 60 min incubation (Liver S9 stability assay [5]): 87.7%
half-life at 2 μM ([6]; Dog whole blood): > 2.41 h
% Remaining after 60 min incubation ([6]; Dog whole blood): 90.6%
half-life at 2 μM ([6]; Human whole blood): 11.9 h
% Remaining after 60 min incubation ([6]; Human whole blood): 100%
half-life at 2 μM ([6]; Mouse whole blood): > 2.41 h
% Remaining after 60 min incubation ([6]; Mouse whole blood): 82.4%
half-life at 2 μM ([6]; Rat whole blood): > 2.41 h
% Remaining after 60 min incubation ([6]; Rat whole blood): 99.6%
